{"source": "patent US20230144023A1", "about": "“USE OF BUTYLPHTHALIDE AND DERIVATIVE THEREOF” (CSPC NBP PHARMACEUTICAL CO., LTD, priority 2020, published 2023)", "key": {"[1]": {"tested_on": "MM.1S, Jeko-1, HT29, A549, DU145", "assay": "In vitro proliferation of 5 cell strains, summary statements (Example 7)", "assay_type": "cell-based, Human", "settings": "monotherapy of NBP; 5 cell strains", "protocol": "Different drug concentration gradients were set for each group.\nMonotherapy group of NBP: NBP was 2× serially diluted from an initial concentration of 480 μM to 8 concentrations: 480, 240, 120, 60, 30, 15, 7.5, and 3.75 μM, respectively.\nThe action time of the drug was 72 h.\n3 replicate wells were set for each concentration of each drug, and blank wells (only culture medium was present, and no tumor cells were inoculated) and normal wells (a culture medium inoculated with tumor cells, drug concentration was 0) were set."}, "MM.1S xenograft tumor": {"tested_on": "MM.1S xenograft tumor", "assay": "Influence of NBP on in vivo anti-tumor efficacy of Bortezomib, MM.1S xenograft (Example 8)", "design": "species or system Nu/Nu mice", "protocol": "After in vitro resuscitation and passage of MM.1S cells to a sufficient amount, the cells were counted by a microscope, and diluted with a serum-free medium to adjust the cell count to about 1×10^8 cells/mL. The cell suspension was kept in an ice-water bath. The MM.1S cell suspension was extracted by a sterile syringe and inoculated into the subcutaneous tissue of the forelimb axilla of the Nu/Nu mice. […] Monotherapy group of Palbociclib: intragastric administration at 70 mg/kg, qd (the administration was commenced on day 0); […] The solvent group was given the solvent at the same frequency and with the same administration method as Bortezomib and NBP. The administration period was 16 days, and the administration volume was 10 mL/kg. […] Animals were weighed at set time once per day after the commencement of administration. After animals were grouped, the long diameter and the short diameter of the tumor were measured twice every week. […] V=1⁄2×A×B^2 […] (4) Tumor growth inhibition rate: Note: V: tumor volume; A: tumor length; B: tumor width; RTV: relative tumor volume; TVnd: tumor volume on day n; TV0d: tumor volume on day 0; […]: mean relative tumor volume on day n; TVXn: mean tumor volume of the therapy group on day n; TVX0: mean tumor volume of the therapy group on day 0; TVMn: mean tumor volume of the solvent group on day n; and TVM0: mean tumor volume of the solvent group on day 0 At the end of the experiment, after the animals were euthanized by CO2 asphyxiation, the tumors were excised and weighed."}, "[2]": {"settings": "day 14, Bor 0.5 mg/kg, Pal 70 mg/kg, NBP 60 mg/kg, alone or combined"}, "[3]": {"settings": "day 14, Bor 0.5 mg/kg, Pal 70 mg/kg, NBP 60 mg/kg, alone or combined, mean, n=6"}}}
{"smiles": "CCCCC1OC(=O)c2ccccc21", "note": "(centres unmarked) [NBP, 3-n-butylphthalide]", "values": [{"measurement": "inhibitory effect on in vitro proliferation", "setting": "[1]", "value": "does not have obvious inhibitory effect"}, {"measurement": "influence of NBP on the tumor inhibition efficacy of Bortezomib", "setting": "MM.1S xenograft tumor; NBP/Bortezomib 60/0.5 mg/kg compared with monotherapy group of Bortezomib, end of experiment", "value": "did not have obvious negative influence"}, {"measurement": "influence of NBP on the antitumor efficacy of combined therapy of Bortezomib/Palbociclib", "setting": "MM.1S xenograft tumor; NBP/Bortezomib/Palbociclib compared with Bortezomib/Palbociclib, end of experiment", "value": "did not have obvious negative influence"}, {"measurement": "body weights of the mice", "setting": "MM.1S xenograft tumor; between groups, P>0.05", "value": "no significant difference"}, {"measurement": "Body weight", "setting": "MM.1S xenograft tumor; day 14, Bor 0.5 mg/kg i.p. biw, Pal 70 mg/kg qd i.g., NBP 60 mg/kg bid gavage, alone or combined, mean, n=6", "value": 24.9, "unit": "g"}, {"measurement": "T/C %", "setting": "MM.1S xenograft tumor; [2]", "value": 73.8, "unit": "%"}, {"measurement": "TGI %", "setting": "MM.1S xenograft tumor; [2]", "value": 25.8, "unit": "%"}, {"measurement": "RTV", "setting": "MM.1S xenograft tumor; [3]", "value": 7.2}, {"measurement": "TV", "setting": "MM.1S xenograft tumor; [3]", "value": 938.1, "unit": "mm^3"}, {"measurement": "Tumor weight inhibition rate", "setting": "MM.1S xenograft tumor; end of experiment, Bor 0.5 mg/kg, Pal 70 mg/kg, NBP 60 mg/kg, alone or combined", "value": 36.9, "unit": "%"}, {"measurement": "Tumor weight", "setting": "MM.1S xenograft tumor; end of experiment, Bor 0.5 mg/kg, Pal 70 mg/kg, NBP 60 mg/kg, alone or combined, mean, n=6, in g (unit assumed)", "value": 1.040}]}
